What was measured:
adjacent DNA half-sites = conditions: addition of arabinose; cited from earlier work
DNA alone = assay: DNA hybridization controls for the AraC experiments; assay type: binding; conditions: compared with no sugar; sugars 10 mM; data not shown
[1] = system: K4 and E4 heterodimerizing coiled-coil peptides; assay: DNA-assisted binding assay; conditions: GC to AT substituted DNA versus original DNA sequence
[2] = target: T1, K4 coiled-coil peptide (modified: N-terminal Met, Val to Trp, C-terminal Ala), unconjugated; assay: ITC
T1 peptide: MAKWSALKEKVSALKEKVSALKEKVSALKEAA

For `O[C@@H]1[C@@H](O)[C@@H](O)CO[C@H]1O` [arabinose], the “increase in amount of AraC capable of binding to adjacent DNA half-sites” value (adjacent DNA half-sites) is listed as 40 -fold and the “effect of sugar on DNA hybridization” value (DNA alone) is listed as “DNA hybridization is not affected”.

In the case of `OC[C@H]1OC(O)[C@H](O)[C@@H](O)[C@@H]1O` (some centres unmarked) [glucose], the “effect of sugar on DNA hybridization” value (DNA alone) is reported as “DNA hybridization is not affected”.

With “GC to AT substituted DNA sequences: K4 and E4 conjugated to GC to AT substituted 5’-TTTTTTGGGTTATAC-3’ and 5’-TTTTTTGTATAAC-3’ (K4 and E4 peptides conjugated)” the “decrease in the interaction between the conjugates” value [1] was 3 -fold.

MAEWSALEKEVSALEKEVSALEKEVSALEKAA [E4 coiled-coil peptide (modified: N-terminal Met, Val to Trp, C-terminal Ala), unconjugated] showed a Kd [2] of about 1000 nM.

— article PMC2790015 (Journal of molecular biology, 2009)
